These are literature values, as cited in patent publication US12090168B2, “Glucose glycans for treating urea cycle disorders” (DSM Nutritional Products, LLC, priority 2017, dated 2024).

The conditions of the data set: administered in combination with lactulose.

Turning to `CO[C@H]1/C=C/O[C@@]2(C)Oc3c(C)c(O)c4c(O)c(c5c(nc6cc(C)ccn65)c4c3C2=O)NC(=O)/C(C)=C\C=C\[C@H](C)[C@H](O)[C@@H](C)[C@@H](O)[C@@H](C)[C@H](OC(C)=O)[C@@H]1C` [rifaximin], the “reduction of episodes of OHE” value is reported as “approximately 50%”.
